Source: US20240270762A1, “PENICILLIN-BINDING PROTEIN INHIBITORS” (priority 2021, published 2024)
≈ marks a conversion by molar mass, not a printed value. Where two headings read alike, the source gives them in different places.

Columns and labels:
N. gonorrhoeae WHO Q = test: Liquid broth MIC in Fastidious broth; conditions: Neisseria gonorrhoeae
N. gonorrhoeae CDC-0197 = test: Liquid broth MIC in Fastidious broth; conditions: Neisseria gonorrhoeae
N. gonorrhoeae WHO X = test: Liquid broth MIC in Fastidious broth; conditions: Neisseria gonorrhoeae
A. baumannii CDC-0036 = test: microbe, parasite or virus in culture; assay type: cell-based; conditions: Acinetobacter baumannii, CDC0036, read-out: MIC, A. baumannii CDC-0036
P. aeruginosa ATCC 27853 = test: microbe, parasite or virus in culture; assay type: cell-based; conditions: Pseudomonas aeruginosa, ATCC27853, read-out: Minimum inhibitory concentration, P. aeruginosa ATCC 27853
[1] = tested on: B. thailandensis ATCC 700388; test: microbe, parasite or virus in culture; assay type: cell-based; conditions: Burkholderia thailandensis, ATCC700388, read-out: Minimum inhibitory concentration (MIC), B. thailandensis ATCC 700388
A. baumannii 1258916 = test: microbe, parasite or virus in culture; assay type: cell-based, Acinetobacter baumannii; conditions: Acinetobacter baumannii, 1258916, read-out: MIC, A. baumannii 1258916
P. aeruginosa CDC-0110 = test: microbe, parasite or virus in culture; assay type: cell-based; conditions: Pseudomonas aeruginosa, CDC0110, read-out: Minimum inhibitory concentration, P. aeruginosa CDC-0110
[2] = tested on: P. aeruginosa (ΔmexAB-oprM); test: Broth microdilution MIC in iron-depleted CAMHB (IDM); assay type: cell-based; conditions: Pseudomonas aeruginosa; iron-depleted CAMHB (IDM); […]; read-out: Minimum inhibitory concentration, P. aeruginosa ΔmexAB-oprM
P. aeruginosa ATCC 35151 = test: microbe, parasite or virus in culture; assay type: cell-based; conditions: Pseudomonas aeruginosa, ATCC35151, read-out: Minimum inhibitory concentration, P. aeruginosa ATCC 35151
A. baumannii ATCC 19606 = test: microbe, parasite or virus in culture; assay type: cell-based; conditions: Acinetobacter baumannii, ATCC19606, read-out: MIC, A. baumannii ATCC 19606
A. baumannii CDC-0045 = test: microbe, parasite or virus in culture; assay type: cell-based; conditions: Acinetobacter baumannii, CDC0045, read-out: MIC, A. baumannii CDC-0045
A. baumannii ATCC 17978 = test: microbe, parasite or virus in culture; assay type: cell-based; conditions: Acinetobacter baumannii, ATCC17978, read-out: MIC, A. baumannii ATCC 17978
P. aeruginosa CDC-0090 = test: microbe, parasite or virus in culture; assay type: cell-based; conditions: Pseudomonas aeruginosa, CDC0090, read-out: Minimum inhibitory concentration, P. aeruginosa CDC-0090
[3] = tested on: B. humptydooensis ATCC BAA-2767; test: microbe, parasite or virus in culture; assay type: cell-based; conditions: Burkholderia humptydooensis, ATCCBAA2767, read-out: Minimum inhibitory concentration (MIC), B. humptydooensis ATCC BAA-2767
[4] = read-out: Minimum Inhibitory Concentration (MIC), N. gonorrhoeae WHO Q
[5] = CDC0197, read-out: Minimum Inhibitory Concentration (MIC), N. gonorrhoeae CDC-0197
[6] = read-out: Minimum Inhibitory Concentration (MIC), N. gonorrhoeae WHO X

SMILES | MIC (N. gonorrhoeae WHO Q; [4]) | MIC (N. gonorrhoeae CDC-0197; [5]) | MIC (N. gonorrhoeae WHO X; [6]) | MIC (A. baumannii CDC-0036) | MIC (P. aeruginosa ATCC 27853) | MIC [1] | MIC (N. gonorrhoeae WHO Q; read-out: Minimum Inhibitory Concentration, WHO Q) | MIC (N. gonorrhoeae CDC-0197; CDC0197, read-out: Minimum Inhibitory Concentration, CDC-0197) | MIC (A. baumannii 1258916) | MIC (P. aeruginosa CDC-0110) | MIC [2] | MIC (P. aeruginosa ATCC 35151) | MIC (A. baumannii ATCC 19606) | MIC (N. gonorrhoeae WHO X; read-out: Minimum Inhibitory Concentration, WHO X) | MIC (A. baumannii CDC-0045) | MIC (A. baumannii ATCC 17978) | MIC (P. aeruginosa CDC-0090) | MIC [3]
O=C(O)c1cccc2c1OB(O)[C@@H](NC(=O)[C@@H](NC(=O)c1cnc3n(c1=O)CCS3)c1ccc(P(=O)(O)O)cc1)C2 (single isomer, unassigned) [Example 196] | 16 to 32 µg/mL (≈ 26.7 to 53.3 µM) | 16 to 32 µg/mL (≈ 26.7 to 53.3 µM) | 16 to 32 µg/mL (≈ 26.7 to 53.3 µM) | – | – | – | – | – | – | – | – | – | – | – | – | – | – | –
O=C(NCCCN1CCN(C(=O)N[C@@H](C(=O)N[C@H]2Cc3ccc(F)c(C(=O)O)c3OB2O)c2cc(F)c(O)c(O)c2Cl)C1=O)c1ccccc1 [Example 253, (R)-3-((R)-2-(3-(3-benzamidopropyl)-2-oxoimidazolidine-1-carboxamido)-2-(2-chloro-5-fluoro-3,4-dihydroxyphenyl)acetamido)-7-fluoro-2-hydroxy-3,4-dihydro-2H-benzo[e][1,2]oxaborinine-8-carboxylic acid] | – | – | – | < 1 µg/mL | 2 to 4 µg/mL (≈ 2.79 to 5.59 µM) | 2 to 4 µg/mL (≈ 2.79 to 5.59 µM) | 16 to 32 µg/mL (≈ 22.4 to 44.7 µM) | > 64 µg/mL | < 1 µg/mL | 2 to 4 µg/mL (≈ 2.79 to 5.59 µM) | < 1 µg/mL | < 1 µg/mL | < 1 µg/mL | > 64 µg/mL | < 1 µg/mL | < 1 µg/mL | 2 to 4 µg/mL (≈ 2.79 to 5.59 µM) | –
CCN1CCN(C(=O)NC(C(=O)N[C@H]2Cc3cccc(C(=O)O)c3OB2O)c2ccc(P(=O)(O)O)c(F)c2O)C(=O)C1=O (stereo partly drawn) [Example 198, (3R)-3-(2-(4-ethyl-2,3-dioxopiperazine-1-carboxamido)-2-(3-fluoro-2-hydroxy-4-phosphonophenyl)acetamido)-2-hydroxy-3,4-dihydro-2H-benzo[e][1,2]oxaborinine-8-carboxylic acid] | 1 to 2 µg/mL (≈ 1.61 to 3.21 µM) | < 1 µg/mL | 4 to 8 µg/mL (≈ 6.43 to 12.9 µM) | – | – | – | – | – | – | – | – | – | – | – | – | – | – | –
O=C(CN1CCN(C(=O)NC(C(=O)N[C@H]2Cc3ccc(F)c(C(=O)O)c3OB2O)c2cc(F)c(O)c(O)c2Cl)C(=O)C1=O)NCc1ccccc1 (stereo partly shown) [Example 238] | > 64 µg/mL | 16 to 32 µg/mL (≈ 21.9 to 43.8 µM) | > 64 µg/mL | 8 to 16 µg/mL (≈ 11 to 21.9 µM) | 2 to 4 µg/mL (≈ 2.74 to 5.48 µM) | 8 to 16 µg/mL (≈ 11 to 21.9 µM) | – | – | 2 to 4 µg/mL (≈ 2.74 to 5.48 µM) | < 1 µg/mL | < 1 µg/mL | < 1 µg/mL | < 1 µg/mL | – | – | < 1 µg/mL | 2 to 4 µg/mL (≈ 2.74 to 5.48 µM) | > 128 µg/mL
O=C(O)c1c(F)ccc2c1OB(O)[C@@H](NC(=O)[C@H](NC(=O)N1CCN(CCNC(=O)[C@@H]3CCCN3)C(=O)C1=O)c1cc(F)c(O)c(O)c1Cl)C2 [Example 229, (R)-3-((R)-2-(2-chloro-5-fluoro-3,4-dihydroxyphenyl)-2-(2,3-dioxo-4-(2-((S)-pyrrolidine-2-carboxamido)ethyl)piperazine-1-carboxamido)acetamido)-7-fluoro-2-hydroxy-3,4-dihydro-2H-benzo[e][1,2]oxaborinine-8-carboxylic acid] | 16 to 32 µg/mL (≈ 22.1 to 44.3 µM) | 16 to 32 µg/mL (≈ 22.1 to 44.3 µM) | > 64 µg/mL | 2 to 4 µg/mL (≈ 2.77 to 5.53 µM) | < 1 µg/mL | < 1 µg/mL | – | – | 2 to 4 µg/mL (≈ 2.77 to 5.53 µM) | 2 to 4 µg/mL (≈ 2.77 to 5.53 µM) | < 1 µg/mL | < 1 µg/mL | < 1 µg/mL | – | < 1 µg/mL | < 1 µg/mL | 2 to 4 µg/mL (≈ 2.77 to 5.53 µM) | –
O=C(CN1CCN(C(=O)NC(C(=O)N[C@H]2Cc3ccc(F)c(C(=O)O)c3OB2O)c2cc(F)c(O)c(O)c2Cl)C(=O)C1=O)NCc1ccc(O)cc1 (stereo partly drawn) [Example 236, (3R)-3-(2-(2-chloro-5-fluoro-3,4-dihydroxyphenyl)-2-(4-(2-((4-hydroxybenzyl)amino)-2-oxoethyl)-2,3-dioxopiperazine-1-carboxamido)acetamido)-7-fluoro-2-hydroxy-3,4-dihydro-2H-benzo[e][1,2]oxaborinine-8-carboxylic acid] | – | – | – | 8 to 16 µg/mL (≈ 10.7 to 21.5 µM) | – | 8 to 16 µg/mL (≈ 10.7 to 21.5 µM) | – | – | 2 to 4 µg/mL (≈ 2.68 to 5.36 µM) | – | – | – | < 1 µg/mL | – | 8 to 16 µg/mL (≈ 10.7 to 21.5 µM) | < 1 µg/mL | – | 2 to 4 µg/mL (≈ 2.68 to 5.36 µM)
